Reference: PubChem BioAssay AID2060508 (Molecular Pharmacology Branch, DTP, NCI, 2025)

Tested on: 454973-116-R2-J3-PDC spheroids, viability, % test/control
Assay: Anticancer human tumor 454973-116-R2-J3-PDC patient-derived pancreatic carcinoma cell line growth inhibition [GQUAD]
Conditions: spheroids with HUVEC and MSC; for IC50: curve of first compound; for viability, T/C: stronger effect = lower value
Method in brief: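 Tumor cells were grown as complex spheroids with HUVEC endothelial cells and mesenchymal stem cells as stroma. G-quadruplex stabilizers were combined with targeted agents over half-log dilutions from near the clinical Cmax, or from 10 microM.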

[1] = second compound 0.0316 µM, first compound 0.0316 µM
[2] = second compound 0.0316 µM, first compound 0.1 µM
[3] = second compound 0.0316 µM, first compound 0.316 µM
[4] = second compound 0.0316 µM, first compound 1 µM
[5] = second compound 0.0316 µM, first compound 3.16 µM
[6] = second compound 0.0316 µM, first compound 10 µM
[7] = second compound 0.1 µM, first compound 0.0316 µM
[8] = second compound 0.1 µM, first compound 0.1 µM
[9] = second compound 0.1 µM, first compound 0.316 µM
[10] = second compound 0.1 µM, first compound 1 µM
[11] = second compound 0.1 µM, first compound 3.16 µM
[12] = second compound 0.1 µM, first compound 10 µM
[13] = second compound 0.316 µM, first compound 0.0316 µM
[14] = second compound 0.316 µM, first compound 0.1 µM
[15] = second compound 0.316 µM, first compound 0.316 µM
[16] = second compound 0.316 µM, first compound 1 µM
[17] = second compound 0.316 µM, first compound 3.16 µM
[18] = second compound 0.316 µM, first compound 10 µM
[19] = second compound 1 µM, first compound 0.0316 µM
[20] = second compound 1 µM, first compound 0.1 µM
[21] = second compound 1 µM, first compound 0.316 µM
[22] = second compound 1 µM, first compound 1 µM
[23] = second compound 1 µM, first compound 3.16 µM
[24] = second compound 1 µM, first compound 10 µM
[25] = second compound 3.16 µM, first compound 0.0316 µM
[26] = second compound 3.16 µM, first compound 0.1 µM
[27] = second compound 3.16 µM, first compound 0.316 µM
[28] = second compound 3.16 µM, first compound 1 µM
[29] = second compound 3.16 µM, first compound 3.16 µM
[30] = second compound 3.16 µM, first compound 10 µM
[31] = second compound 10 µM, first compound 0.0316 µM
[32] = second compound 10 µM, first compound 0.1 µM
[33] = second compound 10 µM, first compound 0.316 µM
[34] = second compound 10 µM, first compound 1 µM
[35] = second compound 10 µM, first compound 3.16 µM
[36] = second compound 10 µM, first compound 10 µM
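Further: spheroids exposed to compounds for seven days.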
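Wherever viability, T/C is given: 100% = DMSO vehicle control viability.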

Question: Which results are given for `CC1COCCN1c1cc(C2(O)CC3CCC(C2)O3)c2cnn(-c3ccn[nH]3)c2n1` (stereo unspecified) + CN(C)c1ccc(Nc2c3ccc(NC(=O)CCN4CCCC4)cc3nc3cc(NC(=O)CCN4CCCC4)ccc23)cc1?
Answer: IC50 (second compound 0.0316 µM): 176 nM; IC50 (second compound 0.1 µM): 174 nM; IC50 (second compound 0.316 µM): 154 nM; IC50 (second compound 1 µM): 146 nM; IC50 (second compound 3.16 µM): 167 nM; IC50 (second compound 10 µM): 99.5 nM; viability, T/C [1]: 106%; viability, T/C [2]: 63.8%; viability, T/C [3]: 35.4%; viability, T/C [4]: 23.3%; viability, T/C [5]: 21.4%; viability, T/C [6]: 15%; viability, T/C [7]: 98.6%; viability, T/C [8]: 66.8%; viability, T/C [9]: 31.2%; viability, T/C [10]: 23.4%; viability, T/C [11]: 22.4%; viability, T/C [12]: 15%; viability, T/C [13]: 99.5%; viability, T/C [14]: 61.5%; viability, T/C [15]: 30.6%; viability, T/C [16]: 21%; viability, T/C [17]: 23%; viability, T/C [18]: 13.1%; viability, T/C [19]: 95.3%; viability, T/C [20]: 58.4%; viability, T/C [21]: 33.1%; viability, T/C [22]: 19.5%; viability, T/C [23]: 20.1%; viability, T/C [24]: 15.5%; viability, T/C [25]: 84%; viability, T/C [26]: 63.2%; viability, T/C [27]: 33.6%; viability, T/C [28]: 19.9%; viability, T/C [29]: 22.4%; viability, T/C [30]: 14.9%; viability, T/C [31]: 65.7%; viability, T/C [32]: 53%; viability, T/C [33]: 30.4%; viability, T/C [34]: 24.4%; viability, T/C [35]: 23%; viability, T/C [36]: 11.2%

Question: How did the IC50 (second compound 0.0316 µM) turn out when `CC(C)n1c(=O)n(C)c2cnc3cc(F)c(-c4ccc(OCCCN5CCCCC5)nc4)cc3c21` + Cc1cnc(CNC(=O)c2c(=O)c3ccc(N4CCCN(C)CC4)nc3n3c2sc2ccccc23)cn1 was run?
Answer: > 10000 nM

Question: What about the IC50 (second compound 0.1 µM) of the same compound?
Answer: < 31.6 nM

Question: And the IC50 (second compound 0.316 µM)?
Answer: < 31.6 nM

Question: What about the IC50 (second compound 1 µM) of the same compound?
Answer: 39.7 nM

Question: And the IC50 (second compound 3.16 µM)?
Answer: > 10000 nM

Question: What about the IC50 (second compound 10 µM) of the same compound?
Answer: < 31.6 nM

Question: What about the viability, T/C [1] of the same compound?
Answer: 76.6%

Question: What about the viability, T/C [2] of the same compound?
Answer: 53.5%

Question: And the viability, T/C [3]?
Answer: 59.6%

Question: What about the viability, T/C [4] of the same compound?
Answer: 52.9%

Question: What about the viability, T/C [5] of the same compound?
Answer: 56.8%

Question: What about the viability, T/C [6] of the same compound?
Answer: 52.3%

Question: What about the viability, T/C [7] of the same compound?
Answer: 43%

Question: And the viability, T/C [8]?
Answer: 35.6%

Question: What about the viability, T/C [9] of the same compound?
Answer: 36.5%

Question: And the viability, T/C [10]?
Answer: 33.6%

Question: What about the viability, T/C [11] of the same compound?
Answer: 39.5%

Question: What about the viability, T/C [12] of the same compound?
Answer: 32.7%

Question: And the viability, T/C [13]?
Answer: 45.5%

Question: And the viability, T/C [14]?
Answer: 49%

Question: What about the viability, T/C [15] of the same compound?
Answer: 38.7%

Question: And the viability, T/C [16]?
Answer: 38.8%

Question: What about the viability, T/C [17] of the same compound?
Answer: 40.3%

Question: And the viability, T/C [18]?
Answer: 33.7%

Question: What about the viability, T/C [19] of the same compound?
Answer: 52.4%

Question: What about the viability, T/C [20] of the same compound?
Answer: 48.4%

Question: And the viability, T/C [21]?
Answer: 46.9%

Question: And the viability, T/C [22]?
Answer: 48.7%

Question: What about the viability, T/C [23] of the same compound?
Answer: 51.8%

Question: And the viability, T/C [24]?
Answer: 48.2%

Question: And the viability, T/C [25]?
Answer: 53.7%

Question: And the viability, T/C [26]?
Answer: 65.8%

Question: What about the viability, T/C [27] of the same compound?
Answer: 56.1%

Question: What about the viability, T/C [28] of the same compound?
Answer: 57.4%

Question: What about the viability, T/C [29] of the same compound?
Answer: 58.3%

Question: What about the viability, T/C [30] of the same compound?
Answer: 44.4%

Question: And the viability, T/C [31]?
Answer: 0.28%

Question: What about the viability, T/C [32] of the same compound?
Answer: 0.31%

Question: And the viability, T/C [33]?
Answer: 14%

Question: What about the viability, T/C [34] of the same compound?
Answer: 0.33%

Question: What about the viability, T/C [35] of the same compound?
Answer: 0.3%

Question: What about the viability, T/C [36] of the same compound?
Answer: 0.25%

Question: Which IC50 (second compound 0.0316 µM) does the source give for `CCCS(=O)(=O)Nc1ccc(F)c(C(=O)c2c[nH]c3ncc(-c4ccc(Cl)cc4)cc23)c1F` + CN(C)c1ccc(Nc2c3ccc(NC(=O)CCN4CCCC4)cc3nc3cc(NC(=O)CCN4CCCC4)ccc23)cc1 here?
Answer: 5410 nM

Question: What about the IC50 (second compound 0.1 µM) of the same compound?
Answer: 6130 nM

Question: What about the IC50 (second compound 0.316 µM) of the same compound?
Answer: 6150 nM

Question: And the IC50 (second compound 1 µM)?
Answer: 5520 nM

Question: And the IC50 (second compound 3.16 µM)?
Answer: 5440 nM

Question: What about the IC50 (second compound 10 µM) of the same compound?
Answer: 3720 nM

Question: And the viability, T/C [1]?
Answer: 108%

Question: And the viability, T/C [2]?
Answer: 104%

Question: What about the viability, T/C [3] of the same compound?
Answer: 114%

Question: What about the viability, T/C [4] of the same compound?
Answer: 110%

Question: And the viability, T/C [5]?
Answer: 85%

Question: What about the viability, T/C [6] of the same compound?
Answer: 10%

Question: And the viability, T/C [7]?
Answer: 103%

Question: What about the viability, T/C [8] of the same compound?
Answer: 98%

Question: What about the viability, T/C [9] of the same compound?
Answer: 103%

Question: What about the viability, T/C [10] of the same compound?
Answer: 123%

Question: What about the viability, T/C [11] of the same compound?
Answer: 106%

Question: What about the viability, T/C [12] of the same compound?
Answer: 8.55%

Question: What about the viability, T/C [13] of the same compound?
Answer: 98.5%

Question: And the viability, T/C [14]?
Answer: 101%

Question: And the viability, T/C [15]?
Answer: 108%

Question: What about the viability, T/C [16] of the same compound?
Answer: 105%

Question: And the viability, T/C [17]?
Answer: 102%

Question: What about the viability, T/C [18] of the same compound?
Answer: 11.7%

Question: And the viability, T/C [19]?
Answer: 88.1%

Question: What about the viability, T/C [20] of the same compound?
Answer: 94.3%

Question: And the viability, T/C [21]?
Answer: 104%

Question: What about the viability, T/C [22] of the same compound?
Answer: 87.9%

Question: And the viability, T/C [23]?
Answer: 85.1%

Question: What about the viability, T/C [24] of the same compound?
Answer: 12.6%

Question: And the viability, T/C [25]?
Answer: 90%

Question: And the viability, T/C [26]?
Answer: 74.1%

Question: What about the viability, T/C [27] of the same compound?
Answer: 101%

Question: What about the viability, T/C [28] of the same compound?
Answer: 89.5%

Question: What about the viability, T/C [29] of the same compound?
Answer: 82.4%

Question: What about the viability, T/C [30] of the same compound?
Answer: 13.5%

Question: And the viability, T/C [31]?
Answer: 68.3%

Question: And the viability, T/C [32]?
Answer: 70%

Question: What about the viability, T/C [33] of the same compound?
Answer: 80.3%

Question: And the viability, T/C [34]?
Answer: 67.2%

Question: What about the viability, T/C [35] of the same compound?
Answer: 57.9%

Question: What about the viability, T/C [36] of the same compound?
Answer: 4.49%
